ChEMBL document CHEMBL4184318, “Identification of Fast-Acting 2,6-Disubstituted Imidazopyridines That Are Efficacious in the in Vivo Humanized Plasmodium falciparum NODscidIL2Rγ null Mouse Model of Malaria” (J Med Chem, 2018)
In brackets after ≈: the same amount, converted by molar mass. Blank lines part the entries; values can stand above or below the compound they belong to.

Columns and labels:
[1] = Cmax in NOD-scid IL-2Rgamma-null mouse model engrafted with Plasmodium falciparum 3D7 infected human erythrocytes at 5 mg/kg administered via oral gavage measured over 23 hrs post first dose by LC-MS/MS method; format: ADME, organism-based; parameters: dose 5 mg/kg, route oral; details: in vivo
[2] = Cmax in Sprague-Dawley rat at 5 mg/kg, iv administered as 2 mins of infusion by LC-MS/MS method; format: ADME, organism-based; parameters: dose 5 mg/kg, route intravenous; details: in vivo
[3] = system: Mus musculus; test: Dose normalized AUC (0 to 23 hrs) in NOD-scid IL-2Rgamma-null mouse model engrafted with Plasmodium falciparum 3D7 infected human erythrocytes at 25 mg/kg via oral gavage by LC-MS/MS method; format: ADME, organism-based; details: in vivo
[4] = Cmax in NOD-scid IL-2Rgamma-null mouse model engrafted with Plasmodium falciparum 3D7 infected human erythrocytes at 50 mg/kg administered via oral gavage measured over 23 hrs post first dose by LC-MS/MS method; format: ADME, organism-based; parameters: dose 50 mg/kg, route oral; details: in vivo
[5] = system: Rattus norvegicus; test: Dose normalized AUC (0 to infinity) in Sprague-Dawley rat at 5 mg/kg, iv administered as 2 mins of infusion by LC-MS/MS method; format: ADME, organism-based; details: in vivo
[6] = system: Mus musculus; test: Dose normalized Cmax in NOD-scid IL-2Rgamma-null mouse model engrafted with Plasmodium falciparum 3D7 infected human erythrocytes at 10 mg/kg administered via oral gavage measured over 23 hrs post first dose by LC-MS/MS method; format: ADME, organism-based; details: in vivo
[7] = Tmax in NOD-scid IL-2Rgamma-null mouse model engrafted with Plasmodium falciparum 3D7 infected human erythrocytes at 50 mg/kg administered via oral gavage measured over 23 hrs post first dose by LC-MS/MS method; format: ADME, organism-based; details: in vivo
[8] = Cmax in BALB/c mouse at 10 mg/kg administered via oral gavage as bolus dose by LC-MS/MS method; format: ADME, organism-based; parameters: dose 10 mg/kg, route oral; details: in vivo
[9] = system: Mus musculus; test: Dose normalized Cmax in NOD-scid IL-2Rgamma-null mouse model engrafted with Plasmodium falciparum 3D7 infected human erythrocytes at 5 mg/kg administered via oral gavage measured over 23 hrs post first dose by LC-MS/MS method; format: ADME, organism-based; details: in vivo
[10] = AUC (0 to 23 hrs) in NOD-scid IL-2Rgamma-null mouse model engrafted with Plasmodium falciparum 3D7 infected human erythrocytes at 25 mg/kg administered via oral gavage by LC-MS/MS method; format: ADME, organism-based; parameters: time < 23 hr, dose 25 mg/kg, route oral; details: in vivo
[11] = Tmax in NOD-scid IL-2Rgamma-null mouse model engrafted with Plasmodium falciparum 3D7 infected human erythrocytes at 10 mg/kg administered via oral gavage measured over 23 hrs post first dose by LC-MS/MS method; format: ADME, organism-based; details: in vivo
[12] = system: Mus musculus; test: Dose normalized AUC (0 to 23 hrs) in NOD-scid IL-2Rgamma-null mouse model engrafted with Plasmodium falciparum 3D7 infected human erythrocytes at 5 mg/kg administered via oral gavage by LC-MS/MS method; format: ADME, organism-based; details: in vivo
[13] = AUC (0 to 23 hrs) in NOD-scid IL-2Rgamma-null mouse model engrafted with Plasmodium falciparum 3D7 infected human erythrocytes at 10 mg/kg administered via oral gavage by LC-MS/MS method; format: ADME, organism-based; parameters: dose 10 mg/kg, time < 23 hr, route oral; details: in vivo
[14] = Tmax in NOD-scid IL-2Rgamma-null mouse model engrafted with Plasmodium falciparum 3D7 infected human erythrocytes at 25 mg/kg administered via oral gavage measured over 23 hrs post first dose by LC-MS/MS method; format: ADME, organism-based; details: in vivo
[15] = Kinetic solubility of the compound in phosphate buffered saline at pH 6.5 after 20 hrs by shake flask method; format: physicochemical; details: read-out: Kinetic_solubility
[16] = Cmax in Sprague-Dawley rat at 20 mg/kg administered via oral gavage as bolus dose by LC-MS/MS method; format: ADME, organism-based; parameters: dose 20 mg/kg, route oral; details: in vivo
[17] = Kinetic solubility of the compound in HCl at pH 2 after 20 hrs by shake flask method; format: physicochemical; details: read-out: Kinetic_solubility
[18] = Cmax in NOD-scid IL-2Rgamma-null mouse model engrafted with Plasmodium falciparum 3D7 infected human erythrocytes at 10 mg/kg administered via oral gavage measured over 23 hrs post first dose by LC-MS/MS method; format: ADME, organism-based; parameters: dose 10 mg/kg, route oral; details: in vivo
[19] = Tmax in BALB/c mouse at 10 mg/kg administered via oral gavage as bolus dose by LC-MS/MS method; format: ADME, organism-based; details: in vivo
[20] = Oral bioavailability in Sprague-Dawley rat at 20 mg/kg administered via gavage as bolus dose by LC-MS/MS method; format: ADME, organism-based; details: in vivo
[21] = system: Mus musculus; test: Dose normalized AUC (0 to 23 hrs) in NOD-scid IL-2Rgamma-null mouse model engrafted with Plasmodium falciparum 3D7 infected human erythrocytes at 50 mg/kg administered via oral gavage by LC-MS/MS method; format: ADME, organism-based; details: in vivo
[22] = system: Mus musculus; test: Dose normalized AUC (0 to 23 hrs) in NOD-scid IL-2Rgamma-null mouse model engrafted with Plasmodium falciparum 3D7 infected human erythrocytes at 10 mg/kg administered via oral gavage by LC-MS/MS method; format: ADME, organism-based; details: in vivo
[23] = system: Mus musculus; test: Dose normalized Cmax in NOD-scid IL-2Rgamma-null mouse model engrafted with Plasmodium falciparum 3D7 infected human erythrocytes at 25 mg/kg administered via oral gavage measured over 23 hrs post first dose by LC-MS/MS method; format: ADME, organism-based; details: in vivo
[24] = AUC (0 to 23 hrs) in NOD-scid IL-2Rgamma-null mouse model engrafted with Plasmodium falciparum 3D7 infected human erythrocytes at 50 mg/kg administered via oral gavage by LC-MS/MS method; format: ADME, organism-based; parameters: dose 50 mg/kg, time < 23 hr, route oral; details: in vivo
[25] = system: Mus musculus; test: Dose normalized AUC (0 to infinity) in BALB/c mouse at 10 mg/kg administered via oral gavage as bolus dose by LC-MS/MS method; format: ADME, organism-based; details: in vivo
[26] = AUC (0 to 23 hrs) in NOD-scid IL-2Rgamma-null mouse model engrafted with Plasmodium falciparum 3D7 infected human erythrocytes at 5 mg/kg administered via oral gavage by LC-MS/MS method; format: ADME, organism-based; parameters: dose 5 mg/kg, time < 23 hr, route oral; details: in vivo
[27] = Volume of distribution in Sprague-Dawley rat at 5 mg/kg, iv administered as 2 mins of infusion by LC-MS/MS method; format: ADME, organism-based; details: in vivo
[28] = Tmax in Sprague-Dawley rat at 20 mg/kg administered via oral gavage as bolus dose by LC-MS/MS method; format: ADME, organism-based; details: in vivo
[29] = Drug metabolism in iv or po dosed Sprague-Dawley rat plasma assessed as oxidation of pyridine ring by LC-MS/MS method; format: ADME, organism-based; details: in vivo
[30] = system: Mus musculus; test: Dose normalized Cmax in NOD-scid IL-2Rgamma-null mouse model engrafted with Plasmodium falciparum 3D7 infected human erythrocytes at 50 mg/kg administered via oral gavage measured over 23 hrs post first dose by LC-MS/MS method; format: ADME, organism-based; details: in vivo
[31] = system: Rattus norvegicus; test: Dose normalized AUC (0 to infinity) in Sprague-Dawley rat at 20 mg/kg administered via oral gavage as bolus dose by LC-MS/MS method; format: ADME, organism-based; details: in vivo
[32] = Tmax in NOD-scid IL-2Rgamma-null mouse model engrafted with Plasmodium falciparum 3D7 infected human erythrocytes at 5 mg/kg administered via oral gavage measured over 23 hrs post first dose by LC-MS/MS method; format: ADME, organism-based; details: in vivo
[33] = Kinetic solubility of the compound in FaSSIF at pH 6.5 after 20 hrs by shake flask method; format: physicochemical; details: read-out: Kinetic_solubility
[34] = Drug metabolism in iv or po dosed Sprague-Dawley rat plasma assessed as oxidation of phenyl ring by LC-MS/MS method; format: ADME, organism-based; details: in vivo
[35] = Cmax in NOD-scid IL-2Rgamma-null mouse model engrafted with Plasmodium falciparum 3D7 infected human erythrocytes at 25 mg/kg administered via oral gavage measured over 23 hrs post first dose by LC-MS/MS method; format: ADME, organism-based; parameters: dose 25 mg/kg, route oral; details: in vivo
[36] = Drug metabolism in iv or po dosed BALB/c mouse plasma assessed as dioxidation of cyclopentane ring by LC-MS/MS method; format: ADME, organism-based; details: in vivo
[37] = Drug metabolism in iv or po dosed BALB/c mouse plasma assessed as oxidation and dehydrogenation of cyclopentane ring by LC-MS/MS method; format: ADME, organism-based; details: in vivo
[38] = Drug metabolism in iv or po dosed BALB/c mouse plasma assessed as oxidation of cyclopentane ring by LC-MS/MS method; format: ADME, organism-based; details: in vivo

Cmax [1]: 573 ng/mL
Cmax [2]: 5.4 µM
AUC/dose [3]: 1.632 µg·h/mL/mg/kg
Cmax [4]: 4860 ng/mL
AUC/dose [5]: 1692 µM·min
Cmax/dose [6]: 0.158 µg/mL/mg/kg
Tmax [7]: 2 to 4 h
Cmax [8]: 4 µM
Cmax/dose [9]: 0.115 µg/mL/mg/kg
AUC(0-t) at 23 h [10]: 32600 ng·h/mL
Tmax [11]: 4 h
AUC/dose [12]: 1.302 µg·h/mL/mg/kg
AUC(0-t) at 23 h [13]: 16900 ng·h/mL
Tmax [14]: 4 h
solubility kinetic at 20 h [15]: < 5 µM
Cmax [16]: 4.7 µM
solubility kinetic at 20 h [17]: 13 µM (≈ 5.09 µg/mL)
Cmax [18]: 1580 ng/mL
Tmax [19]: 1.7 h
bioavailability [20]: 88%
AUC/dose [21]: 1.681 µg·h/mL/mg/kg
AUC/dose [22]: 1.686 µg·h/mL/mg/kg
Cmax/dose [23]: 0.155 µg/mL/mg/kg
AUC(0-t) at 23 h [24]: 84100 ng·h/mL
AUC/dose [25]: 2622 µM·min
AUC(0-t) at 23 h [26]: 6510 ng·h/mL
Vd [27]: 2.3 L/kg
Tmax [28]: 12 h
Drug metabolism [29]: Metabolite_Detected
Cmax/dose [30]: 0.097 µg/mL/mg/kg
AUC/dose [31]: 5923 µM·min
Tmax [32]: 4 to 6 h
solubility kinetic at 20 h [33]: 50 to 100 µM (≈ 19.6 to 39.1 µg/mL)
Drug metabolism [34]: Metabolite_Notdetected
Cmax [35]: 3090 ng/mL
SMILES: Fc1ccc(Nc2cc3[nH]c(-c4ccc(F)c(C(F)(F)F)c4)nc3cn2)nc1

Drug metabolism [36]: Metabolite_Detected
solubility kinetic at 20 h [15]: 145 µM (≈ 50.4 µg/mL)
solubility kinetic at 20 h [17]: 132 µM (≈ 45.8 µg/mL)
Drug metabolism [37]: Metabolite_Detected
Drug metabolism [38]: Metabolite_Detected
solubility kinetic at 20 h [33]: 85 µM (≈ 29.5 µg/mL)
SMILES: FC(F)(F)c1ccc(Nc2cc3[nH]c(C4CCCC4)nc3cn2)nc1
